Laboratory results: ChEMBL document CHEMBL1201862, “PubChem BioAssay data set” (2004)
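A five-concentration, 48-hour dose response in 96-well plates underlies each endpoint, interpolated linearly between surrounding concentrations. At the GI50, growth is halved.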 Activity calls are given as the source filed them. Rule as the data show it: active = GI50 up to about 1.1 µM and inactive = higher.

Tests used:
Assay in all cases: NCI tumour cell line growth inhibition, 48 h
IGROV-1 = test system: IGROV-1
CCRF-CEM = test system: CCRF-CEM
K562 = test system: K562
U-251 = test system: U-251
MDA-MB-435 = test system: MDA-MB-435
PC-3 = test system: PC-3
OVCAR-8 = test system: OVCAR-8
OVCAR-4 = test system: OVCAR-4
MDA-N = test system: MDA-N
SK-MEL-5 = test system: SK-MEL-5
A549 = test system: A549
HCT-15 = test system: HCT-15
786-0 = test system: 786-0
SNB-75 = test system: SNB-75
Malme-3M = test system: Malme-3M
M14 = test system: M14
NCI-H23 = test system: NCI-H23
T47D = test system: T47D
NCI/ADR-RES = test system: NCI/ADR-RES
SR = test system: SR
UACC-257 = test system: UACC-257
RXF 393 = test system: RXF 393
DU-145 = test system: DU-145
SN12C = test system: SN12C
HT-29 = test system: HT-29
LOX IMVI = test system: LOX IMVI
HCT-116 = test system: HCT-116
BT-549 = test system: BT-549
HOP-62 = test system: HOP-62
CAKI-1 = test system: CAKI-1
SF-295 = test system: SF-295
SF-268 = test system: SF-268
OVCAR-5 = test system: OVCAR-5
MDA-MB-231 = test system: MDA-MB-231
TK-10 = test system: TK-10
SK-OV-3 = test system: SK-OV-3
NCI-H226 = test system: NCI-H226
Hs-578T = test system: Hs-578T
SNB-19 = test system: SNB-19
NCI-H460 = test system: NCI-H460
COLO 205 = test system: COLO 205
SK-MEL-2 = test system: SK-MEL-2
SK-MEL-28 = test system: SK-MEL-28
EKVX = test system: EKVX
KM12 = test system: KM12
HOP-92 = test system: HOP-92
OVCAR-3 = test system: OVCAR-3
SW-620 = test system: SW-620
UO-31 = test system: UO-31
MOLT-4 = test system: MOLT-4
NCI-H522 = test system: NCI-H522
RPMI-8226 = test system: RPMI-8226
ACHN = test system: ACHN
UACC-62 = test system: UACC-62
MCF7 = test system: MCF7
HL-60 = test system: HL-60
A498 = test system: A498
SF-539 = test system: SF-539
HCC 2998 = test system: HCC 2998

**Q.** For `COc1cc(C=O)ccc1Oc1nnnn1-c1ccccc1`, which GI50 (IGROV-1) is on record?
**A.** 84100 nM (inactive)

**Q.** What about the GI50 (CCRF-CEM) of the same compound?
**A.** 19600 nM (inactive)

**Q.** And the GI50 (K562)?
**A.** 34700 nM (inactive)

**Q.** What about the GI50 (U-251) of the same compound?
**A.** 85300 nM (inactive)

**Q.** What about the GI50 (MDA-MB-435) of the same compound?
**A.** 36400 nM (inactive)

**Q.** And the GI50 (PC-3)?
**A.** 82400 nM (inactive)

**Q.** What about the GI50 (OVCAR-8) of the same compound?
**A.** 66200 nM (inactive)

**Q.** What about the GI50 (OVCAR-4) of the same compound?
**A.** 50900 nM (inactive)

**Q.** And the GI50 (MDA-N)?
**A.** 37800 nM (inactive)

**Q.** What about the GI50 (SK-MEL-5) of the same compound?
**A.** 20100 nM (inactive)

**Q.** What about the GI50 (A549) of the same compound?
**A.** > 100000 nM (inactive)

**Q.** What about the GI50 (HCT-15) of the same compound?
**A.** 62500 nM

**Q.** And the GI50 (786-0)?
**A.** > 100000 nM (inactive)

**Q.** What about the GI50 (SNB-75) of the same compound?
**A.** 34800 nM (inactive)

**Q.** And the GI50 (Malme-3M)?
**A.** 84100 nM (inactive)

**Q.** And the GI50 (M14)?
**A.** 31800 nM (inactive)

**Q.** What about the GI50 (NCI-H23) of the same compound?
**A.** 46000 nM (inactive)

**Q.** What about the GI50 (T47D) of the same compound?
**A.** 16500 nM (inactive)

**Q.** What about the GI50 (NCI/ADR-RES) of the same compound?
**A.** 38500 nM (inactive)

**Q.** And the GI50 (SR)?
**A.** 18900 nM (inactive)

**Q.** And the GI50 (UACC-257)?
**A.** > 100000 nM (inactive)

**Q.** What about the GI50 (RXF 393) of the same compound?
**A.** > 100000 nM (inactive)

**Q.** And the GI50 (DU-145)?
**A.** 32100 nM (inactive)

**Q.** And the GI50 (SN12C)?
**A.** > 100000 nM (inactive)

**Q.** And the GI50 (HT-29)?
**A.** 86700 nM (inactive)

**Q.** What about the GI50 (LOX IMVI) of the same compound?
**A.** 39900 nM (inactive)

**Q.** What about the GI50 (HCT-116) of the same compound?
**A.** 29800 nM (inactive)

**Q.** And the GI50 (BT-549)?
**A.** 66200 nM (inactive)

**Q.** And the GI50 (HOP-62)?
**A.** > 100000 nM (inactive)

**Q.** And the GI50 (CAKI-1)?
**A.** 31300 nM (inactive)

**Q.** And the GI50 (SF-295)?
**A.** > 100000 nM (inactive)

**Q.** And the GI50 (SF-268)?
**A.** 42700 nM (inactive)

**Q.** And the GI50 (OVCAR-5)?
**A.** > 100000 nM (inactive)

**Q.** What about the GI50 (MDA-MB-231) of the same compound?
**A.** > 100000 nM (inactive)

**Q.** What about the GI50 (TK-10) of the same compound?
**A.** > 100000 nM (inactive)

**Q.** What about the GI50 (SK-OV-3) of the same compound?
**A.** > 100000 nM (inactive)

**Q.** And the GI50 (NCI-H226)?
**A.** < 10 nM (active)

**Q.** What about the GI50 (Hs-578T) of the same compound?
**A.** 48600 nM (inactive)

**Q.** What about the GI50 (SNB-19) of the same compound?
**A.** 54800 nM (inactive)

**Q.** What about the GI50 (NCI-H460) of the same compound?
**A.** > 100000 nM (inactive)

**Q.** What about the GI50 (COLO 205) of the same compound?
**A.** > 100000 nM (inactive)

**Q.** What about the GI50 (SK-MEL-2) of the same compound?
**A.** > 100000 nM (inactive)

**Q.** And the GI50 (SK-MEL-28)?
**A.** 72400 nM (inactive)

**Q.** What about the GI50 (EKVX) of the same compound?
**A.** > 100000 nM (inactive)

**Q.** What about the GI50 (KM12) of the same compound?
**A.** 55000 nM (inactive)

**Q.** And the GI50 (HOP-92)?
**A.** 71400 nM (inactive)

**Q.** What about the GI50 (OVCAR-3) of the same compound?
**A.** 45700 nM (inactive)

**Q.** What about the GI50 (SW-620) of the same compound?
**A.** 27500 nM (inactive)

**Q.** And the GI50 (UO-31)?
**A.** 94400 nM (inactive)

**Q.** And the GI50 (MOLT-4)?
**A.** 23100 nM (inactive)

**Q.** And the GI50 (NCI-H522)?
**A.** > 100000 nM (inactive)

**Q.** What about the GI50 (RPMI-8226) of the same compound?
**A.** 32800 nM (inactive)

**Q.** Which results are given for `COc1cc(C2c3cc4c(cc3OC(NCc3ccccc3)C2C)OCO4)cc(OC)c1OC` (stereo not given)?
**A.** GI50 (IGROV-1): 448 nM (active); GI50 (CCRF-CEM): 390 nM (active); GI50 (K562): 305 nM (active); GI50 (U-251): 390 nM (active); GI50 (MDA-MB-435): 102 nM (active); GI50 (PC-3): 240 nM (active); GI50 (OVCAR-8): 482 nM (active); GI50 (OVCAR-4): 644 nM (active); GI50 (MDA-N): 97.3 nM (active); GI50 (ACHN): 1010 nM (active); GI50 (SK-MEL-5): 261 nM (active); GI50 (A549): 631 nM (active); GI50 (HCT-15): 543 nM; GI50 (786-0): 357 nM (active); GI50 (UACC-62): 409 nM (active); GI50 (SNB-75): 177 nM (active); GI50 (Malme-3M): 254 nM (active); GI50 (M14): 442 nM (active); GI50 (NCI-H23): 417 nM (active); GI50 (NCI/ADR-RES): 258 nM (active); GI50 (SR): 241 nM (active); GI50 (UACC-257): 6920 nM (inactive); GI50 (RXF 393): 206 nM (active); GI50 (DU-145): 406 nM (active); GI50 (SN12C): 697 nM (active); GI50 (HT-29): 337 nM (active); GI50 (LOX IMVI): 551 nM (active); GI50 (MCF7): 439 nM (active); GI50 (HCT-116): 364 nM (active); GI50 (BT-549): 631 nM (active); GI50 (HOP-62): 553 nM (active); GI50 (CAKI-1): 288 nM (active); GI50 (SF-295): 219 nM (active); GI50 (SF-268): 933 nM (active); GI50 (OVCAR-5): 1090 nM (active); GI50 (MDA-MB-231): 303 nM (active); GI50 (TK-10): 20200 nM (inactive); GI50 (SK-OV-3): 476 nM (active); GI50 (NCI-H226): 853 nM (active); GI50 (Hs-578T): 279 nM (active); GI50 (SNB-19): 452 nM (active); GI50 (HL-60): 277 nM (active); GI50 (NCI-H460): 394 nM (active); GI50 (COLO 205): 252 nM (active); GI50 (A498): 667 nM (active); GI50 (SK-MEL-2): 675 nM (active); GI50 (SK-MEL-28): 4040 nM (inactive); GI50 (EKVX): 2560 nM (inactive); GI50 (KM12): 377 nM (active); GI50 (HOP-92): 2000 nM (inactive); GI50 (SF-539): 273 nM (active); GI50 (HCC 2998): 687 nM (active); GI50 (OVCAR-3): 298 nM (active); GI50 (SW-620): 331 nM (active); GI50 (UO-31): 504 nM (active); GI50 (MOLT-4): 653 nM (active); GI50 (NCI-H522): 339 nM (active); GI50 (RPMI-8226): 381 nM (active)
